Results on one compound are retold here after ChEMBL document CHEMBL1287808, “Synthesis and anti-HCV activity of a new 2'-deoxy-2'-fluoro-2'-C-methyl nucleoside analogue” (Bioorg Med Chem Lett, 2010).

In brackets after ≈: the same amount, converted by molar mass. Activity calls are given as the source filed them. The rule behind the calls is not given here.

For test [1], the system named is Hepatitis C virus. Nature of the test: Antiviral activity against Hepatitis C virus infected in HEK293 cell expressing sip-L protein. Type of test: functional, organism-based, Hepacivirus hominis.
Test [2] concerns Hepatitis C virus. Nature of the test: Antiviral activity against Hepatitis C virus infected in Ava5 cell assessed as suppression of HCV replication at 0.6 ug/ml. Type of test: functional, organism-based. Particulars: Hepacivirus hominis.
Test [3] relates to Hepatitis C virus. In words: Antiviral activity against Hepatitis C virus infected in Ava5 cell assessed as suppression of HCV replication at 6 ug/ml. Particulars: Hepacivirus hominis. Type of test: functional, organism-based.
In test [4] the test system is Hepatitis C virus. Nature of the test: Antiviral activity against Hepatitis C virus infected in HEK293 cell expressing sip-L protein assessed viral RNA level. Type of test: functional, organism-based, Hepacivirus hominis.
The test system of test [5] is Hepatitis C virus. In words: Antiviral activity against Hepatitis C virus infected in Ava5 cell assessed as suppression of HCV replication at 0.06 ug/ml. Type of test: functional, organism-based. The note with it: Hepacivirus hominis.

Broadly, the IC50 is the concentration needed to halve the response being measured. Low readings indicate greater potency in that assay, high ones weaker potency in that assay. The term EC50 denotes the midpoint of the concentration-response curve. Higher therefore signals a less potent agent. As for `C[C@@]1(F)[C@H](O)[C@@H](CO)O[C@H]1n1cc(F)c2c(N)ncnc21`, half-maximal inhibition in test [1] (IC50) required 350 µg/mL (≈ 1170 µM). Also, the outcome in test [2] and in test [3] was Active. The same compound registered an EC50 in test [4] of 0.8 µg/mL (≈ 2.66 µM). For the same compound, the outcome in test [5] was inactive.
